Source: patent US20020193564A1, “Oligomeric chaperone proteins” (priority 1999, published 2002)

Legend:
E. coli SV2 groEL44 = assay: In vivo complementation of ts groEL44 at 43° C.; format: cell-based; conditions: plasmids pJC, relative to growth at 30° C.
Method: In vivo Complementation Experiments.
Complementation experiments were performed by transforming electro-competent SV2 or SV6 cells with the pJC series of expression vectors and plating an aliquot of the transformation reactions directly at 43° C. The percentage of viable cells relative to the growth at 30° C. was determined. A representative number of clones which grew at 43° C. were incubated in absence of any selective markers at permissive temperature. After prolonged growth the loss of the pJC plasmids and the ts phenotype were verified. Each experiment was performed in duplicate. Plasmids carrying no groE genes or encoding the GroE proteins were used as negative or positive controls, respectively.

bacteriophage T4 = assay: Growth of bacteriophage T4 in transformed groEL strains; format: cell-based, bacteriophage T4 (T4D0) in E. coli; parameters: key to Growth of bacteriophage T4, SV1 (groEL^+) / Growth of bacteriophage T4, SV2 groEL44 / Growth of bacteriophage T4, SV3 GroEL59 / Growth of bacteriophage T4, SV6 groEL673: +++: normal plaque-forming ability relative to wild-type groEL^+ strain, in terms of both number and size; ++: 5-fold fewer plaques relative to wild-type groEL^+ strain, or both; 10-fold fewer plaques, or plaque size reduced relative to wild-type groEL^+ strain, or both; +/−: 10^2-fold fewer plaques and plaque size reduced relative to wild-type groEL^+ strain; no visible plaques (<10^−4); conditions: 37° C.
Source text: The E. Coli strains used in this study were: C41(DE3), a mutant of BL21(DE3) capable of expressing toxic genes (Miroux, B. & Walker, J. E. (1996) J. Mol. Biol. 260, 289-298); SV2 (B178groEL44), SV3 (B178groEL59) and SV6 (B178groEL673): isogenic strains carrying temperature-sensitive alleles of groEL; SV1(=B178) (Georgopoulos, C., Hendrix, R. W., Casjens, S. R. & Kaiser, A. D. (1973) J. Mol. Biol. 76, 45-60), A190 (ΔgroEL::kan^R) [pBAD-EL] (Ivic, A., Olden, D., Wallington, E. J. & Lund, P. A. (1997) Gene 194, 1-8), and TG1 (Gibson, T. J. (1984) Ph.D. thesis, University of Cambridge, U.K). Bacteriophage λb2cI (Zeilstra-Ryalls, J., Fayet, O., Baird, L. & Georgopoulos, C. (1993) J. Bacteriol. 175, 1134-1143) was used according to standard methods (Arber, W., Enquist, L., Hohn, B., Murray, N. E. & Murray, K. (1983) in Lambda II., ed. R. W. Hendrix, J. W. r., F. W. Stahl and R. A. Weisberg (Cold Spring Harbor Laboratory, Cold Spring Harbor, N.Y.), pp. 433-466); plaque formation was assayed at 30° C. T4D0, a derivative of bacteriophage T4 (Zeilstra-Ryalls, J., Fayet, O., Baird, L. & Georgopoulos, C. (1993) J. Bacteriol. 175, 1134-1143), was used according to standard methods (Karam, J. D. (1994) Molecular biology of bacteriophage T4. (American Society for Microbiology, Washington, D.C.)); plaque formation was assayed at 37° C.

[1] = test system: Lorist6 (bacteriophage λ origin vector); assay: Effect of over-expression on Lorist6 replication; format: cell-based, E. coli; conditions: over-expression from pJC
Method: Effect on Lorist6 Replication of Over-Expressing of MC7.
The effect of over-expressing Gp31 proteins from pJC vector series on the replication of the bacteriophage λ origin vector, Lorist6 (Gibson, T. J., Rosenthal, A. & Waterston, R. H. (1987) Gene 53, 283-286) in TG1 (Gibson, T. J. (1984) Ph.D. thesis, University of Cambridge, U.K) or SV1 (Georgopoulos, C., Hendrix, R. W., Casjens, S. R. & Kaiser, A. D. (1973) J. Mol. Biol. 76, 45-60) cells was determined essentially as described (Chatellier, J., Hill, F., Lund, P. & Fersht, A. R. (1998) Proc. Natl. Acad. Sci. U.S.A. 95, 9861-9866).

## GroEL(1-548): key molecular chaperone in Escherichia coli, 14 subunits of 57.5 kD in two seven membered rings
E. coli SV2 groEL44
  Relative colony forming ability, SV2 groEL44: 1
Bacteriophage T4; SV1
  Growth of bacteriophage T4, SV1 (groEL^+): +++
Bacteriophage T4; SV2
  Growth of bacteriophage T4, SV2 groEL44: +++
Bacteriophage T4; SV3
  Growth of bacteriophage T4, SV3 GroEL59: +++
Bacteriophage T4; SV6
  Growth of bacteriophage T4, SV6 groEL673: +++
[1]
  replication of the Lorist6 plasmid: inhibit the replication
